Where two headings read alike, the source gives them in different places.
Assays:
EmrE [1] = target: T1, EmrE (Escherichia coli, UniProt P23895, K22A); assay: TROSY-HSQC NMR; format: binding
T1 sequence (P23895 1-110 K22A): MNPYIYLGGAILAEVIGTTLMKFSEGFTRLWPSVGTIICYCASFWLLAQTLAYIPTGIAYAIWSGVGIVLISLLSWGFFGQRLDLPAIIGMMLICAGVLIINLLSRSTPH

EmrE [2] = target: T2, EmrE (Escherichia coli, UniProt P23895, K22R); assay: fluorescence polarization; format: binding
T2 sequence (P23895 1-110 K22R): T1 sequence (P23895 1-110 K22A)

EmrE [3] = target: T3, EmrE (Escherichia coli, UniProt P23895); assay: fluorescence polarization; format: binding
T3 sequence (P23895 1-110): T1 sequence (P23895 1-110 K22A)

EmrE [4] = target: T1, EmrE; assay: fluorescence polarization; format: binding
native MS [5] = target: the molecule itself; assay: native MS
native MS [6] = target: the molecule itself; assay: native MS; remark: listed apart in the source

**Q.** Which “TROSY-HSQC NMR” value (EmrE [1]) does the source give for `c1ccc([P+](c2ccccc2)(c2ccccc2)c2ccccc2)cc1` [tetraphenylphosphonium bromide] here?
**A.** a portion of the drug-free K22A-EmrE was saturated with the substrate tetraphenylphosphonium bromide (TPP+)

**Q.** How did the Kd (EmrE [2]) turn out when `CC1=CC(C)=[N+]2C1=C(c1ccc3c(c1)OCCOCCOCCOCCOCCO3)c1c(C)cc(C)n1[B-]2(F)F` [benzo[18]crown-6 BODIPY, 10-(2,3,5,6,8,9,11,12,14,15-decahydrobenzo[b][1,4,7,10,13,16]Hexaoxacyclooctadecin-18-yl)-5,5-difluoro-1,3,7,9-tetramethyl-5H-4l4,5l4-dipyrrolo[1,2-c:2′,1′-f][1,3,2]diazaborinine] was run?
**A.** 0.226 µM

**Q.** And the Kd (EmrE [3])?
**A.** 0.0974 µM

**Q.** What about the Kd (EmrE [4]) of the same molecule?
**A.** 0.154 µM

B1: Saposin A (natural protein)
chain: SLPCDICKDVVTAAGDMLKDNATEEEILVYLEKTCDWLPKPNMSASCKEIVDSYLPVILDIIKGEMSRPGEVCSALNLCESLQ
**Q.** Which “stoichiometry N” value (native MS [5]) does the source give for B1 here?
**A.** 2

**Q.** And the “stoichiometry N” value (native MS [6])?
**A.** 4

B2: EmrE (WT-EmrE), multidrug efflux pump from Escherichia coli (natural protein)
chain: T1 sequence (P23895 1-110 K22A)
**Q.** Which “stoichiometry N” value (native MS [5]) does the source give for B2 here?
**A.** 2

Reference: paper PMC12440375 (Biochemistry, 2025)
